Measured values published in patent publication US8871751B2, “Compositions and methods relating to nuclear hormone and steroid hormone receptors including inhibitors of estrogen receptor alpha-mediated gene expression and inhibition of breast cancer” (The Board of Trustees of the University of Illinois, priority 2008, dated 2014).
“Also recorded” adds a separate entry of the source. Read-outs that look alike come from different tables or passages of the source.

Legend:
ERα [1] = target: T1, ERα (Homo sapiens, UniProt P03372); design: Using a stably transfected breast cancer cell line that expresses endogenous ERα; endogenous in cells; host or cells: T47D-KBluc; conditions: T47D cells, conditions identical to TPSF; see Mao C et al., 2008; read-out: IC50 for inhibition of E2-ERα-mediated (ERE)3-luciferase expression; cited from earlier work
T1 sequence (P03372 1-595): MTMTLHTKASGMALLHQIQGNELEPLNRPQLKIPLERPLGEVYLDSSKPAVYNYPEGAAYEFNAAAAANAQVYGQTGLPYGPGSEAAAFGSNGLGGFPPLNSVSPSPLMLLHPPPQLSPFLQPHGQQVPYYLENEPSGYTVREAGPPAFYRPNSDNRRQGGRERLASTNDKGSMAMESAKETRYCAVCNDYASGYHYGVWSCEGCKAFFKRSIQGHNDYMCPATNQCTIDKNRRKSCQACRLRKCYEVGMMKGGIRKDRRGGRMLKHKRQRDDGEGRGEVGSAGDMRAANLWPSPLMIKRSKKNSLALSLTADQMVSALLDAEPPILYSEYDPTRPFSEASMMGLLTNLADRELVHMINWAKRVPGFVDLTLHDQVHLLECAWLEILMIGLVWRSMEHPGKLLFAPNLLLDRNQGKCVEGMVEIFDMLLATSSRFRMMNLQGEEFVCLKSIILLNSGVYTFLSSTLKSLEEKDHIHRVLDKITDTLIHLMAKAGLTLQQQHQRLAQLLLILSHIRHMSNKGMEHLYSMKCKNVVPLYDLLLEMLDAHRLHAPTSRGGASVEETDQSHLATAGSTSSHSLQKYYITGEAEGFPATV

ZR-75 cells = experiment: E2-ERα-dependent growth of ZR-75 cells (MTS); type: cell-based; conditions: Homo sapiens, ZR75, 96 h, 100 pM E2, 4 days, read-out: IC50 for inhibition of E2-ERα-dependent growth of ZR-75 cells
Experimental: (§1) FIG. 20 illustrates further activity of TPSF in the inhibition of tamoxifen-resistant human breast cancer cells. The effects of TPSF on the E2-ERα-dependent growth of tamoxifen-resistant BT474 and ZR-75 cells were assessed. […] The cells were maintained in medium containing 10% CD-FBS (ZR-75) or 10% CD-CS (BT474) containing or lacking 100 pM E2 and the indicated concentrations of TPSF. Viable cells were measured by comparison to a standard curve of cell number versus absorbance using the MTS assay. Data represents the average of at least 4 wells. IC50 values for TPSF inhibition of cell growth were calculated by curve-fitting using Sigma Plot.
(§2) Assays for Cell Growth and Viability. Cells were maintained in the media listed above containing CD-treated serum for at least 4 days prior to the experiment. To minimize cell aggregation, MCF-7 cells were harvested in 10 mM Hepes, pH 7.4, 1 mM EDTA. Other cell lines were harvested in trypsin-EDTA. 1,000 cells were plated into each well of a 96 well plate. For slow growing ZR-75 cells, 2,000 cells were plated/well. The cells were maintained in medium containing CD-treated serum for 24 hours. At 24 hours the medium was changed and E2 and DMSO vehicle or TPSF in DMSO was added. […] After 4 days viable cells were determined using a cell viability test, Promega CellTiter 96 Aqueous One Solution Cell Proliferation Assay (MTS) (Promega, Wis.).

NF-κB = experiment: NF-κB-mediated induction of IL-8 mRNA by TNF-α in MCF-7 cells; type: cell-based, human
Experimental: FIG. 14 illustrates results of testing for specific inhibition of E2-ERα-mediated gene expression. The effects of TPSF on an NF-κB regulated gene, IL-8, were tested in MCF-7 cells maintained for 24 hours in medium containing 10 ng/ml TNF-α alone or TNF-α and 30 μM TPSF. RNA was extracted and IL-8 mRNA levels were measured by quantitative (q)RT-PCR. Data shown is the average of 3 experiments±SEM.
(§3) Endogenous Gene Expression. MCF-7 cells or MCF7ERαHA cells were maintained for 4 days in medium containing 5% CD calf serum (MCF-7 cells) or 10% 6×CD-FBS (MCF7ERαHA cells). In assays of TPSF inhibition of PI-9 induction, cells were plated, incubated for 24 hours in the indicated concentrations of TPSF and then maintained 4 hours with and without E2, with and without TPSF. To induce ERα, MCF7ERαHA cells were also maintained in 0.5 μg/ml Dox for 24 hours prior to addition of E2 or OHT with or without TPSF. For induction of cyclin D1, 24 hours after plating the cells, E2 with and without TPSF was added, the cells were maintained for 24 hours, RNA was extracted and mRNA levels were determined by quantitative RT-PCR as described (19, 26). Actin mRNA levels were used as the qRT-PCR internal standard. The primers and sequences used in qRT-PCR were as follows.

ERα [2] = target: T1, ERα; experiment: Endogenous PI-9 mRNA induction in MCF-7 cells (qRT-PCR); type: cell-based; design: endogenous in cells; conditions: 10 nM E2, read-out: IC50 for inhibition of E2-ERα induction of endogenous PI-9 mRNA (Endog. PI-9)
Experimental: as §3

MCF-7 cells = experiment: E2-dependent growth of MCF-7 cells (MTS); type: cell-based, human
Experimental: Assays for Cell Growth and Viability. Cells were maintained in the media listed above containing CD-treated serum for at least 4 days prior to the experiment. To minimize cell aggregation, MCF-7 cells were harvested in 10 mM Hepes, pH 7.4, 1 mM EDTA. Other cell lines were harvested in trypsin-EDTA. 1,000 cells were plated into each well of a 96 well plate. For slow growing ZR-75 cells, 2,000 cells were plated/well. The cells were maintained in medium containing CD-treated serum for 24 hours. At 24 hours the medium was changed and E2 and DMSO vehicle or TPSF in DMSO was added. The medium was replaced after 2 days (except for BT474 cells whose medium was not changed). After 4 days viable cells were determined using a cell viability test, Promega CellTiter 96 Aqueous One Solution Cell Proliferation Assay (MTS) (Promega, Wis.).

BT474 cells = experiment: E2-ERα-dependent growth of BT474 cells (MTS); type: cell-based; conditions: Homo sapiens, BT-474, 96 h, 100 pM E2, 4 days, read-out: IC50 for inhibition of E2-ERα-dependent growth of BT474 cells
Experimental: as §1, §2

| IC50 (NF-κB; Homo sapiens, MCF7, TNF-α, IL-8 mRNA, read-out: IC50 for inhibition of NF-κB gene expression) [nM] | IC50 (ERα [2]) [nM] | IC50 (MCF-7 cells; Homo sapiens, MCF7, 96 h, 1 pM E2, 4 days, MTS, read-out: IC50 for inhibition of E2-dependent growth of MCF-7 cells) [nM] | IC50 (BT474 cells) [nM] | SMILES | IC50 (ERα [1]) [nM] | IC50 (ZR-75 cells) [nM] | effect on NF-κB-mediated induction of IL-8 mRNA by TNF-α (NF-κB; 30 μM, 10 ng/ml TNF-α, 24 h) | effect on E2-dependent growth of MCF-7 cells (MCF-7 cells; 7.5 μM) |
| --- | --- | --- | --- | --- | --- | --- | --- | --- |
|  |  |  |  | Cn1c(=O)c2nc(CSCc3ccccc3)[nH]c2n(C)c1=O [Compound 95910, 8-Benzylsulfanylmethyl-1,3-dimethyl-3,7-dihydro-purine-2,6-dione] | 11000 |  |  |  |
| > 30000 | 200 | 2000 | 1600 | Cn1c(=S)c2[nH]c(SCCCC(=O)c3ccc(F)cc3)nc2n(C)c1=O [TPSF, Butyrophenone, p-fluoro-4-(1,2,3,6,-tetrahydro-1,3-dimethyl-2-oxo-6-thionopurin-8-ylthio)] |  | 900 | no effect; also recorded: absence of an effect | completely blocked |
